Reference: ChEMBL document CHEMBL3856269, “Anti-inflammatory activity effect of 2-substituted-1,4,5,6-tetrahydrocyclopenta[b]pyrrole on TPA-induced skin inflammation in mice” (2016)
Calls of active or inactive are those of the source. No cut-off for these calls is given here.

How the values were obtained:
Assay type in all cases: functional
Mus musculus [1] = assay: Anti-inflammatory activity in TPA-induced Balb/c mouse ear edema model assessed as reduction in TPA-induced ear edema at 0.75 uM administered topically 6 mins prior to TPA administration measured after 6 hrs relative to control; parameters: scale not given: the % may be the effect or the level left
Mus musculus [2] = assay: In vivo inhibition of IKK-mediated NF-kB activation in Balb/c mouse assessed as decrease in TPA-induced p65 expression at 0.75 uM administered topically 6 mins prior to TPA administration measured after 6 hrs by immunohistochemical analysis
Mus musculus [3] = assay: In vivo inhibition of IKK-mediated NF-kB activation in Balb/c mouse assessed as decrease in TPA-induced COX2 expression at 0.75 uM administered topically 6 mins prior to TPA administration measured after 6 hrs by immunohistochemical analysis
Mus musculus [4] = assay: Potency index, ratio of compound to celecoxib potency for reduction in TPA-induced ear edema in Balb/c mouse
Mus musculus [5] = assay: In vivo inhibition of IKK-mediated NF-kB activation in Balb/c mouse assessed as decrease in TPA-induced IL-6 expression at 0.75 uM administered topically 6 mins prior to TPA administration measured after 6 hrs by immunohistochemical analysis
Mus musculus [6] = assay: In vivo inhibition of IKK activation in Balb/c mouse at 0.75 uM administered topically 6 mins prior to TPA administration measured after 6 hrs by immunohistochemical analysis
Mus musculus [7] = assay: In vivo inhibition of IKK-mediated NF-kB activation in Balb/c mouse assessed as decrease in TPA-induced TNFalpha expression at 0.75 uM administered topically 6 mins prior to TPA administration measured after 6 hrs by immunohistochemical analysis
Mus musculus [8] = assay: In vivo inhibition of IKK-mediated NF-kB activation in Balb/c mouse assessed as decrease in TPA-induced phosphorylation of IKBalpha at Ser-32 residue at 0.75 uM administered topically 6 mins prior to TPA administration measured after 6 hrs by immunohistochemical analysis
Mus musculus [9] = assay: Anti-inflammatory activity in Balb/c mouse assessed as reduction in TPA-induced dense dermal leukocyte infiltration at 0.75 uM administered topically 6 mins prior to TPA administration measured after 6 hrs by hematoxylin and eosin staining based microscopic analysis
Mus musculus [10] = assay: In vivo inhibition of IKK-mediated NF-kB activation in Balb/c mouse assessed as decrease in TPA-induced IL-1beta expression at 0.75 uM administered topically 6 mins prior to TPA administration measured after 6 hrs by immunohistochemical analysis
Mus musculus [11] = assay: Anti-inflammatory activity in Balb/c mouse assessed as reduction in TPA-induced epidermal hyperplasia at 0.75 uM administered topically 6 mins prior to TPA administration measured after 6 hrs by hematoxylin and eosin staining based microscopic analysis
Mus musculus [12] = assay: Anti-inflammatory activity in Balb/c mouse assessed as reduction in TPA-induced hyperkeratosis at 0.75 uM administered topically 6 mins prior to TPA administration measured after 6 hrs by hematoxylin and eosin staining based microscopic analysis
Mus musculus [13] = assay: In vivo inhibition of IKK-mediated NF-kB activation in Balb/c mouse assessed as decrease in TPA-induced phospho-Ser536 p65 expression at 0.75 uM administered topically 6 mins prior to TPA administration measured after 6 hrs by immunohistochemical analysis

Structure (SMILES) | Activity (Mus musculus [1]) | further results
c1ccc(CCCn2c(-c3ccccc3)cc3c2CCC3)cc1 | -13.56% | 
Cc1ccc(-c2cc3c(n2-c2ccccc2)CCC3)cc1 | 0.53% | 
c1ccc(-c2cc3c(n2-c2ccccc2)CC(c2ccccc2)C3)cc1 (configuration not stated) | 16.09% | 
COc1ccc(Cn2c(-c3ccccc3)cc3c2CCC3)cc1 | 2.93% | 
c1ccc(Cn2c(-c3ccccc3)cc3c2CCC3)cc1 | 25.66% | 
Brc1ccc(-n2c(-c3ccccc3)cc3c2CCC3)cc1 | 15.96% | 
CC(C)(C)c1cc2c([nH]1)CCC2 | 9.71% | 
CCCn1c(-c2ccccc2)cc2c1CCC2 | 57.31% | inhibition (Mus musculus [2]): Active; inhibition (Mus musculus [3]): Active; Ratio (Mus musculus [4]): 3.2; inhibition (Mus musculus [5]): Active; inhibition (Mus musculus [6]): Active; inhibition (Mus musculus [7]): Active; inhibition (Mus musculus [8]): Active; Activity (Mus musculus [9]): Active; inhibition (Mus musculus [10]): Active; Activity (Mus musculus [11]): Active; Activity (Mus musculus [12]): Active; inhibition (Mus musculus [13]): Active
Clc1ccccc1-n1c(-c2ccccc2)cc2c1CCC2 | -6.78% | 
COc1ccc(-c2cc3c([nH]2)CCC3)cc1 | 17.55% | 
CC(C)Cn1c(-c2ccccc2)cc2c1CCC2 | 6.91% | 
COCCCn1c(-c2ccccc2)cc2c1CCC2 | 1.46% | 
COc1ccc(Cn2c(-c3ccc(C)cc3)cc3c2CCC3)cc1 | 7.71% | 
C#CCn1c(-c2ccccc2)cc2c1CCC2 | 8.77% | 
Clc1ccc(-n2c(-c3ccccc3)cc3c2CCC3)cc1 | 19.41% | 
CCn1c(-c2ccccc2)cc2c1CCC2 | 13.56% | 
c1ccc(-c2cc3c(n2C2CC2)CCC3)cc1 | 20.88% | 
C#CCn1c(-c2ccc(C)cc2)cc2c1CCC2 | 4.92% | 
c1ccc(-c2cc3c(n2C2CCCCC2)CCC3)cc1 | 19.02% | 
O=[N+]([O-])c1ccc(-n2c(-c3ccccc3)cc3c2CCC3)cc1 | -12.9% | 
c1ccc(-c2cc3c([nH]2)CCC3)cc1 | 10.23% | 
c1ccc(CCn2c(-c3ccccc3)cc3c2CCC3)cc1 | -1.86% | 
CC(C)(C)c1cc2c(n1-c1ccccc1)CCC2 | -0.53% | 
c1ccc(-c2cc3c(n2-c2ccccc2)CCC3)cc1 | -0.93% | 
CCCCn1c(-c2ccccc2)cc2c1CCC2 | -9.17% | 
Cc1ccc(-c2cc(C(F)(F)F)nn2-c2ccc(S(N)(=O)=O)cc2)cc1 [CELECOXIB] | 17.95% | inhibition (Mus musculus [2]): Active; inhibition (Mus musculus [3]): Active; inhibition (Mus musculus [5]): Active; inhibition (Mus musculus [7]): Active; Activity (Mus musculus [9]): Active; inhibition (Mus musculus [10]): Active; Activity (Mus musculus [11]): Active; Activity (Mus musculus [12]): Active; inhibition (Mus musculus [13]): Active
